Columns and labels:
[1] = Disruptor-1 trial: BNC105P in combination with everolimus, maximum tolerated dose; type: in vivo, human (metastatic clear cell renal cell carcinoma patients); conditions: intravenous infusion over 10 minutes, days 1 and 8 of 21 day cycle, with 10 mg oral everolimus daily
From the text: The objective of the study was to determine the response rate of patients administered BNC105P (vascular disrupting agent) in combination with everolimus (mTOR inhibitor) in patients who had progressed from prior tyrosine kinase inhibitor therapy. In addition, the present inventors determined the improvement in 6-months progression free survival (PFS) with the addition of BNC105P to everolimus (Afinitor). A control group of patients received everolimus alone.
The medical histories of patients were obtained prior to commencement of the study.
Patients in the BNC105P in combination with everolimus study group (the “combination arm”) were administered 10 mg oral everolimus daily. On days 1 and 8 of the 21 day cycle period, the patients were administered 16 mg/m^2 BNC105P, which had been determined to be the maximum tolerated dose, by intravenous infusion over a 10 minute period (FIG. 1). Treatment was continued until disease progressed, intolerable toxicity became apparent, or until consent was withdrawn. A control group of patients were administered with everolimus alone.

[2] = system: tumour endothelial cells (activated) and normal endothelial cells (quiescent); assay: Potency against activated (tumour) versus quiescent (normal) endothelial cells; type: cell-based; conditions: activated vs quiescent endothelial cells
tubulin = assay: Tubulin polymerisation inhibition; type: biochemical

For COc1cc(C(=O)c2c(C)oc3c(OP(=O)([O-])[O-])c(OC)ccc23)cc(OC)c1OC.[Na+].[Na+] [BNC105P, disodium [6-methoxy-2-methyl-3-(3,4,5-trimethoxybenzoyl)-1-benzofuran-7-yl] phosphate], the maximum tolerated dose [1] was 16 mg/m^2.

With COc1ccc(/C=C\c2cc(OC)c(OC)c(OC)c2)cc1O [Combretastatin A4, reference compound] the “selectivity between activated (tumour) and quiescent (normal) endothelial cells” value [2] was “equally potent against quiescent and activated endothelial cells”.

With COc1cc(C(=O)c2c(C)oc3c(O)c(OC)ccc23)cc(OC)c1OC [formula III, 2-methyl-7-hydroxy-3-(3,4,5-trimethoxybenzoyl)-6-methoxybenzofuran] the “selectivity between activated (tumour) and quiescent (normal) endothelial cells” value [2] was “show selectivity towards tumor endothelial cells (activated) over normal endothelial cells (quiescent)” and the tubulin polymerisation inhibition (tubulin) was “potent tubulin polymerisation inhibitors”.

Source: patent US10520508B2, “Predictive baseline biomarkers for use of vascular disrupting agents” (BIONOMICS LIMITED, priority 2014, dated 2019)
